According to patent US8772286B2, “MK2 inhibitors” (Merck Sharp & Dohme B.V., priority 2009, dated 2014):
Values after ≈ are worked out from the molar mass of the structure shown. Where two headings read alike, the source gives them in different places.

What was measured:
MK2 enzyme = target: T1, MK2 enzyme (Homo sapiens, UniProt P49137); assay: MK2 enzyme activity, IMAP fluorescence polarization assay; format: biochemical
T1 construct: MK2 enzyme (active enzyme (peptide 46-end (Millipore))); purchased Millipore
T1 sequence (P49137 46-400 limits assumed): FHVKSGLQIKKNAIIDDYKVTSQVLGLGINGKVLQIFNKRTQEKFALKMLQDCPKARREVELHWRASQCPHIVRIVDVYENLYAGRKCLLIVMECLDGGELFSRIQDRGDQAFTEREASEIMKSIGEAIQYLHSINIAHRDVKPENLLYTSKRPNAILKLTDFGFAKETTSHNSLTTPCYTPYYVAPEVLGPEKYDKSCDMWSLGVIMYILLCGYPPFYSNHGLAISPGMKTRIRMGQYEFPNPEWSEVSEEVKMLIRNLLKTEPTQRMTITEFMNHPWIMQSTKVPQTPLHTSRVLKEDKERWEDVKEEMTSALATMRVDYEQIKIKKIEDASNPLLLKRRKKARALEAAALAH
Excerpt: In another assay the MK2 kinase activity can be determined by using an IMAP assay (Immobilized Metal Assay for Phosphochemicals—based coupled assay). IMAP is a homogeneous fluorescence polarization (FP) assay based on affinity capture of phosphorylated peptide substrates. IMAP uses fluorescein-labeled peptide substrates that, upon phosphorylation by a protein kinase, bind to so called IMAP nanoparticles, which are derivatized with trivalent metal complexes. […] In such an assay, MK2 phosphorylates a fluorescein-labeled peptide substrate (see example 14).
MK2 enzyme activity is measured using the IMAP (immobilized metal ion affinity-based fluorescence polarization) assay as outlined below.
The enzyme is diluted to 100 U/mL the day before use in KR buffer (10 mM Tris-HCl, 10 mM MgCl2, 0.01% Tween-20, 0.05% NaN3, 2 mM DTT, pH 7.2) and stored overnight at −20° C.
The dilutions in DMSO are then diluted 50-fold in KR-buffer of which 5 μl is used in the assay, leading to a final compound concentration range in the assay from 10 μM to 0.316 nM.
After 60 min incubation at room temperature in the dark the FP signal is read. Fluorescence at 535 nm is measured using parallel and perpendicular filters to determine differences in rotation due to binding of the phosphorylated substrate peptide to the beads. Values are calculated as percentage of the difference in readout (ΔmPi) of the controls with and without ATP. EC50 values are determined by curve fitting of the experimental results using Activity Base.

[1] = Solubility determination of MK2 inhibitors (kinetic aqueous solubility, UPLC); format: physicochemical; conditions: aqueous buffer (system solution from pION inc.), 22 °C, pH 7.4, aqueous buffer, kinetic from dmso stock
Method: The solubility can be determined using the Automated Kinetic Aqueous Solubility (AKASol) method, which is an HPLC-UV based method. The method is derived from the classical saturated shake-flask solubility method which has been adapted to the 96-well microtitre plate format, allowing the use of DMSO stock solutions. The solubility is determined by measuring the amount of compound in a saturated aqueous solution, quantified by an external calibration curve of the compound dissolved in DMSO. The solubility (mg/L) is measured at pH 7.4, at room temperature and the final concentration of DMSO in the sample solution is 1%.
The samples were prepared from 10 mM DMSO stock solutions. For each compound under investigation, a volume (9 μL) of the DMSO stock solution is transferred from the DMSO stock solution into 891 μL of buffer solution (system solution from pION inc.) in a 96 deep well plate, which equates to approximately 1% DMSO, using the Packard Multiprobe II robot liquid handling system. The pH of the buffer is manually adjusted at pH 7.4 by adding NaOH. This procedure is done in duplicate for each sample. After shaking for 24 h on a vortex mixer (Heidolph, Titramax 101) at 450 rpm and at room temperature (21-23° C.), 300 uL of the incubated sample is transferred from the deep well plate to a filter plate (PVDF, 0.45 um) on a vacuum manifold. To the filtrate (150 uL) 1-propanol (50 uL) is added to suppress precipitation and this solution is then analysed by UPLC. The solubility is determined using the calibration line previously prepared.
Preparation of the Standards and Built up of a Calibration Line
The calibration line is built with different concentrations of the test compound (standards), prepared from the same 10 mM DMSO stock solution. A volume (7 uL) from the same DMSO stock solution was diluted with DMSO (273 uL) leading to a solution with concentration of 0.25 mM. From this solution, three different injection volumes (0.2, 1, 1.8 uL) were injected on UPLC. The respective peak areas are plotted against amount of compound to build up the calibration line. The calibration line is used to determine the amount of dissolved compound in each sample, selecting the injection that gave peak areas closest to the peak area range of the calibration standards.

[2] = MK2 IMAP assay, 1 μM ATP, 30 min pre-incubation, 2 h room temperature, read-out: pEC50 value (converted)
[3] = pH 7.4, room temperature, about 1% DMSO, 24 h shaking, read-out: solubility
[4] = Table 1, compound of Formula (I) with spiro ring, pH 7.4, read-out: Solubility pH 7.4 (mg/L), Formula (I)

Compound	EC50 (MK2 enzyme; [2])	solubility at 24 h [1, 3]	further results
O=C1NCC2(CCNCC2)c2[nH]c(-c3ccnc(-c4ccccc4F)n3)cc21 [1—4, 2′-(2-(2-fluorophenyl)pyrimidin-4-yl)-5′,6′-dihydrospiro[piperidine-4,7′-pyrrolo[3,2-c]pyridin]-4′(1′H)-one]	3.16 to 31.6 nM	20 to 50 mg/L (≈ 53 to 132 µM)	
NCCN1CCC2(CC1)CNC(=O)c1cc(-c3ccnc(-c4cc5ccccc5o4)n3)[nH]c12 [Example 2—3, 1-(2-aminoethyl)-2′-(2-(benzofuran-2-yl)pyrimidin-4-yl)-5′,6′-dihydrospiro[piperidine-4,7′-pyrrolo[3,2-c]pyridin]-4′(1′H)-one]	31.6 to 316 nM	≥ 50 mg/L	
O=C1NCC2(CCNC2)c2[nH]c(-c3ccnc(-c4cccc(F)c4)n3)cc21 (stereo not shown) [6—4, 2′-(2-(3-fluorophenyl)pyrimidin-4-yl)-5′,6′-dihydrospiro[pyrrolidine-3,7′-pyrrolo[3,2-c]pyridin]-4′(1′H)-one]	3.16 to 31.6 nM	20 to 50 mg/L (≈ 55 to 138 µM)	
O=C1NCC2(CCNCC2)c2[nH]c(-c3ccnc(-c4ccccc4F)n3)cc21 [16_4 Formula (I)]			EC50 (MK2 enzyme; Table 1, compound of Formula (I) with spiro ring, MK2 IMAP assay, read-out: pEC50, Formula (I) (converted)): 31.6 nM; solubility at 24 h [1, 4]: 36 mg/L
O=C1NCC2(CCNCC2)c2[nH]c(-c3ccnc(-c4cccc(C(F)(F)F)c4)n3)cc21 [1—35, 2′-(2-(3-(trifluoromethyl)phenyl)pyrimidin-4-yl)-5′,6′-dihydrospiro[piperidine-4,7′-pyrrolo[3,2-c]pyridin]-4′(1′H)-one]	3.16 to 31.6 nM	≥ 50 mg/L	
O=C(NC1CCCCC1)c1ccc(-c2nccc(-c3cc4c([nH]3)C3(CCNCC3)CNC4=O)n2)cc1Cl [1—31, 2-chloro-N-cyclohexyl-4-(4-(4′-oxo-1′,4′,5′,6′-tetrahydrospiro[piperidine-4,7′-pyrrolo[3,2-c]pyridine]-2′-yl)pyrimidin-2-yl)benzamide]	3.16 to 31.6 nM	≥ 50 mg/L	
O=C1NCC2(CCNCC2)c2[nH]c(-c3ccnc(-c4nccs4)n3)cc21 [9—3, 2′-(2-(thiazol-2-yl)pyrimidin-4-yl)-5′,6′-dihydrospiro[piperidine-4,7′-pyrrolo[3,2-c]pyridin]-4′(1′H)-one]	31.6 to 316 nM	≥ 50 mg/L	
O=C1NCC2(CCCNC2)c2[nH]c(-c3ccnc(-c4cc5ccccc5o4)n3)cc21 (stereo not shown) [Example 5—1, 2′-(2-(benzofuran-2-yl)pyrimidin-4-yl)-5′,6′-dihydrospiro[piperidine-3,7′-pyrrolo[3,2-c]pyridin]-4′(1′H)-one]	3.16 to 31.6 nM	≥ 50 mg/L	
O=C1NCC2(CCNCC2)c2[nH]c(-c3ccnc(-c4ccc5c(c4)OCO5)n3)cc21 [16_5 Formula (I)]			pEC50, Formula (I) (MK2 enzyme; Table 1, compound of Formula (I) with spiro ring, MK2 IMAP assay): 8.4; solubility at 24 h [1, 4]: 37 mg/L
CNC(=O)c1ccc(-c2ncc(F)c(-c3cc4c([nH]3)C3(CCNCC3)CNC4=O)n2)cc1 [4—4, 4-(5-fluoro-4-(4′-oxo-1′,4′,5′,6′-tetrahydrospiro[piperidine-4,7′-pyrrolo[3,2-c]pyridine]-2′-yl)pyrimidin-2-yl)-N-methylbenzamide]	3.16 to 31.6 nM	20 to 50 mg/L (≈ 46 to 115 µM)	
O=C1NCC2(CCNCC2)c2[nH]c(-c3ccnc(-c4ccc(C5CCCCC5)cc4)n3)cc21 [1—18, 2′-(2-(4-cyclohexylphenyl)pyrimidin-4-yl)-5′,6′-dihydrospiro[piperidine-4,7′-pyrrolo[3,2-c]pyridin]-4′(1′H)-one]	31.6 to 316 nM	20 to 50 mg/L (≈ 45.3 to 113 µM)	
O=C1NCC2(CCNCC2)c2[nH]c(-c3ccnc(-c4cnc5ccccc5c4)n3)cc21 [1—21, 2′-(2-(quinolin-3-yl)pyrimidin-4-yl)-5′,6′-dihydrospiro[piperidine-4,7′-pyrrolo[3,2-c]pyridin]-4′(1′H)-one]	3.16 to 31.6 nM	20 to 50 mg/L (≈ 48.7 to 122 µM)	
O=C1NCCc2[nH]c(-c3ccnc(-c4cc5ccccc5o4)c3)cc21 [16_7 Formula (XV)]			EC50 (MK2 enzyme): 126 nM; solubility at 24 h ([1]; Table 1, comparison compound of Formula (XV) without spiro ring, pH 7.4, read-out: Solubility pH 7.4 (mg/L), Formula (XV)): 2 mg/L
O=C1NCC2(CCNCC2)c2[nH]c(-c3ccnc(-c4ccc(C(F)(F)F)c(Cl)c4)n3)cc21 [1—10, 2′-(2-(3-chloro-4-(trifluoromethyl)phenyl)pyrimidin-4-yl)-5′,6′-dihydrospiro[piperidine-4,7′-pyrrolo[3,2-c]pyridin]-4′(1′H)-one]	3.16 to 31.6 nM	≥ 50 mg/L	
CC(C)Cc1ccc(-c2nccc(-c3cc4c([nH]3)C3(CCNCC3)CNC4=O)n2)cc1 [1—23, 2′-(2-(4-isobutylphenyl)pyrimidin-4-yl)-5′,6′-dihydrospiro[piperidine-4,7′-pyrrolo[3,2-c]pyridin]-4′(1′H)-one]	3.16 to 31.6 nM	≥ 50 mg/L	

The next lines start with results.

EC50 (MK2 enzyme; [2])	solubility at 24 h [1, 3]	Compound	further results
3.16 to 31.6 nM	20 to 50 mg/L (≈ 47.9 to 120 µM)	O=C1NCC2(CCNCC2)c2[nH]c(-c3nc(-c4cc5ccccc5o4)ncc3F)cc21 [Example 4—1, 2′-(2-(benzofuran-2-yl)-5-fluoropyrimidin-4-yl)-5′,6′-dihydrospiro[piperidine-4,7′-pyrrolo[3,2-c]pyridin]-4′(1′H)-one]	
3.16 to 31.6 nM	≥ 50 mg/L	O=C1NCC2(CCNCC2)c2[nH]c(-c3ccnc(-c4cc5ccccc5o4)c3)cc21 [Example 8—1, 2′-(2-(benzofuran-2-yl)pyridin-4-yl)-5′,6′-dihydrospiro[piperidine-4,7′-pyrrolo[3,2-c]pyridin]-4′(1′H)-one]	
3.16 to 31.6 nM	≥ 50 mg/L	Cc1ccc(-c2nccc(-c3cc4c([nH]3)C3(CCNC3)CNC4=O)n2)cc1 (stereo not shown) [6—3, 2′-(2-p-tolylpyrimidin-4-yl)-5′,6′-dihydrospiro[pyrrolidine-3,7′-pyrrolo[3,2-c]pyridin]-4′(1′H)-one]	
3.16 to 31.6 nM	≥ 50 mg/L	O=C1NCC2(CCCNC2)c2[nH]c(-c3ccnc(-c4ccc5c(c4)OCO5)n3)cc21 (stereo not shown) [5—2, 2′-(2-(benzo[d][1,3]dioxol-5-yl)pyrimidin-4-yl)-5′,6′-dihydrospiro[piperidine-3,7′-pyrrolo[3,2-c]pyridin]-4′(1′H)-one]	
≤ 3.16 nM	20 to 50 mg/L (≈ 48.8 to 122 µM)	O=C1NCC2(CCNCC2)c2[nH]c(-c3ccnc(-c4cnc5ccccc5c4)c3)cc21 [8—2, 2′-(2-(quinolin-3-yl)pyridin-4-yl)-5′,6′-dihydrospiro[piperidine-4,7′-pyrrolo[3,2-c]pyridin]-4′(1′H)-one]	
3.16 to 31.6 nM	20 to 50 mg/L (≈ 50.1 to 125 µM)	O=C1NCC2(CCNCC2)c2[nH]c(-c3ccnc(-c4cc5ccccc5o4)n3)cc21 [Example 1—1, 2′(2-(benzofuran-2-yl)pyrimidin-4-yl)-5′,6′-dihydrospiro[piperidine-4,7′-pyrrolo[3,2-c]pyridin]-4′(1′H)-one]	
3.16 to 31.6 nM	20 to 50 mg/L (≈ 47.5 to 119 µM)	O=C1NCC2(CCNCC2)c2[nH]c(-c3nc(-c4ccc5c(c4)OCO5)ncc3F)cc21 [4—2, 2′-(2-(benzo[d][1,3]dioxol-5-yl)-5-fluoropyrimidin-4-yl)-5′,6′-dihydrospiro[piperidine-4,7′-pyrrolo[3,2-c]pyridin]-4′(1′H)-one]	
31.6 to 316 nM	20 to 50 mg/L (≈ 44.5 to 111 µM)	O=C1NCC2(CCNCC2)c2[nH]c(-c3ccnc(-c4ccc5oc6ccccc6c5c4)n3)cc21 [1—26, 2′-(2-(dibenzo[b,d]furan-2-yl)pyrimidin-4-yl)-5′,6′-dihydrospiro[piperidine-4,7′-pyrrolo[3,2-c]pyridin]-4′(1′H)-one]	
